The values below come from PubChem BioAssay AID1996.

SMILES strings stand for the structures. Values after ≈ are worked out from the molar mass of the structure shown.

The conditions of this data set: buffer; pH 7.4; 200.0 µM.
The compound `O=C(O)CSCC(=O)N1CCCCC1` returned a solubility (kinetic) above 32.6 µg/mL.
For `O=C(NC(=S)Nc1ccccc1Br)C1CCCC1`, the solubility (kinetic) stood at 2.7 µg/mL (≈ 8.25 µM).
`COc1ccc(OC)c(C(C)NC(=O)C(C)Cc2ccccc2)c1` (configuration not stated): the kinetic solubility amounted to 45.7 µg/mL (≈ 140 µM).
As for `CC(=O)c1ccc(OC(C)C(=O)NCC2(N3CCOCC3)CCCCC2)cc1` (configuration not stated), the figure is above 58.3 µg/mL; as for `CCOC(=O)C1=C(C)N(C)C(=O)NC1c1ccc2c(c1)OCO2` (configuration not stated), above 47.7 µg/mL; as for `O=[N+]([O-])c1ccc(NCCCN2CCOCC2)c2ncccc12`, 2.5 µg/mL (≈ 7.9 µM).
`CSc1ncc(C(=O)Nc2cccc(Cl)c2C)c(C)n1` came in with a kinetic solubility of 18.8 µg/mL (≈ 61.1 µM).
As to `COc1ccc(N2CCN(c3ccc([N+](=O)[O-])nc3)CC2)cc1`, the kinetic solubility is 3 µg/mL (≈ 9.54 µM).
The same measure for `Cc1c(C(=O)Nc2cccnc2)oc2ccc(Br)cc12`: below 0.4 µg/mL; for `N#Cc1nc(-c2ccc(F)cc2)oc1N1CCCCC1`: 0.9 µg/mL (≈ 3.32 µM); for `O=C(Nc1ccc(Nc2ccccc2)cc1)c1ccc(F)cc1`: 0.7 µg/mL (≈ 2.29 µM).
Regarding `COc1ccc(CCC(=O)NCCOc2ccccc2Cl)cc1`, the solubility (kinetic) was above 50.1 µg/mL.
Compound `CC1CN(CC(=O)Nc2ccc([N+](=O)[O-])cc2Br)CC(C)O1` (configuration not stated) had a kinetic solubility of 6.4 µg/mL (≈ 17.2 µM).
`O=C(NC1CCCCC1)C1CCCN1S(=O)(=O)c1ccc(F)cc1` (configuration not stated) yielded a solubility (kinetic) of 8 µg/mL (≈ 22.6 µM).
In turn, `CC(=O)O.NCC(c1ccco1)c1c[nH]c2ccccc12` (configuration not stated) yielded a solubility (kinetic) of 21.5 µg/mL.
As for `Cc1ccsc1C1C(C#N)=C(N)OC2=C1C(=O)CCC2` (configuration not stated), the figure is 41.9 µg/mL (≈ 146 µM); as for `CCCCNC(=O)Nc1ccc(C2SCCS2)cc1`, 9.9 µg/mL (≈ 33.4 µM); as for `O=C(NC1CCN(Cc2ccccc2)CC1)c1ccc2c(c1)OCCCO2`, 51.6 µg/mL (≈ 141 µM).
The compound `CC(=O)Nc1ccc(Oc2ccccc2)cc1` came in with a kinetic solubility of 33.6 µg/mL (≈ 148 µM).
In turn, `Cc1cc(SCc2c(F)cccc2Cl)nc(=O)[nH]1` had a solubility (kinetic) of 39.2 µg/mL (≈ 138 µM).
The same measure for `CC(C)Oc1cccc(C(=O)C2CCCN(C3CCOCC3)C2)c1` (configuration not stated): 31 µg/mL (≈ 93.5 µM); for `O=C(Nc1ccc(Oc2cccc(C(F)(F)F)c2)nc1)c1ccco1`: 1.2 µg/mL (≈ 3.45 µM).
`Cc1ccc2[nH]c(=O)c3cc(C(=O)NCCC(C)C)sc3c2c1` showed a kinetic solubility below 0.4 µg/mL.
In the case of `CC(C)(C)c1cc(NS(=O)(=O)c2ccc(Br)s2)no1`, the solubility (kinetic) is 30.1 µg/mL (≈ 82.4 µM).
In turn, `CCNC(=O)c1cc(S(=O)(=O)N2CCSCC2)ccc1OC` displayed a kinetic solubility of 45.1 µg/mL (≈ 131 µM).
`CCOC(=O)C(=O)Nc1sc(C(=O)N(CC)CC)c(C)c1C#N` gave a solubility (kinetic) above 50.6 µg/mL.
Compound `COc1ccc(S(=O)(=O)N2CCCc3ccccc32)cc1[N+](=O)[O-]` had a solubility (kinetic) of 9.7 µg/mL (≈ 27.8 µM).
As for `COC(=O)C1CCCN1C(=O)C12CC3CC(CC(C3)C1)C2` (configuration not stated), the figure is 41.9 µg/mL (≈ 144 µM); as for `O=C(Nc1ccc2c(c1)OCO2)c1cc(Cl)ccn1`, 6.1 µg/mL (≈ 22 µM).
`COc1ccc(NC(=O)COC(C)=O)cc1OC` came in with a kinetic solubility above 38 µg/mL.
`CSCCC(NC(=O)COc1ccccc1)C(=O)NCc1cccs1` (configuration not stated): the kinetic solubility was above 56.8 µg/mL.
As for `Br.COc1cccc(CNCC2CCCO2)c1` (configuration not stated), the figure is 44.1 µg/mL.
As for `Cc1cccc(C(=O)Nc2ccc(NC(=O)c3ccccc3)cc2)c1`, the kinetic solubility came out at 1 µg/mL (≈ 3.03 µM).
In turn, `Cc1cc(C)c2cc(C(=O)Nc3ccc4c(c3)OCO4)[nH]c2c1` displayed a solubility (kinetic) below 0.3 µg/mL.
As for `CC(C)(C)c1cc(CCC(=O)NCC2CCCO2)cc(C(C)(C)C)c1O` (configuration not stated), the figure is 20.2 µg/mL (≈ 55.9 µM).
In the case of `COc1ccccc1/C=C/C(=O)N1CCN(S(=O)(=O)c2cccs2)CC1`, the solubility (kinetic) came to 23.7 µg/mL (≈ 60.4 µM).
Regarding `O=C1CCc2cc(S(=O)(=O)Nc3ccccc3)cc3c2N1CC3`, the kinetic solubility is above 49.3 µg/mL.
For `Cc1csc(NC(=O)c2ccc(Cl)nc2)n1`, the kinetic solubility was above 38.1 µg/mL.
As for `Cc1cc(NC(=O)Nc2ccc(Cl)c(Cl)c2)no1`, the kinetic solubility was below 0.2 µg/mL.
`CC(=O)c1cccc(NC(=O)CCn2c(=S)oc3ccccc32)c1` had a solubility (kinetic) of 0.8 µg/mL (≈ 2.35 µM).
Take `O=C(Nc1ccc(N2CCOCC2)cc1)c1cccc2ccccc12`: the kinetic solubility stood at 2.7 µg/mL (≈ 8.12 µM).
`COc1ccc(CNC(=O)Nc2cccc(Cl)c2)cc1`: the solubility (kinetic) came out at 1.1 µg/mL (≈ 3.78 µM).
Take `N#Cc1ccc(NC(=O)CN2CCN(c3ccccn3)CC2)cc1`: the kinetic solubility amounted to 16.4 µg/mL (≈ 51 µM).
The same measure for `CC1CCCC(C)N1C(=O)COC(=O)c1nn(C)c(=O)c2ccccc12` (configuration not stated): above 53.6 µg/mL; for `Cn1c(CNc2ccc(Br)cc2)nc2ccccc21`: 13 µg/mL (≈ 41.1 µM).
The same measure for `CCS(=O)(=O)Nc1cccc(C(=O)O)c1`: 30.5 µg/mL (≈ 133 µM).
As for `CCCOc1ccc(/C=C2\SC(N)=NC2=O)cc1OC`, the figure is 2.5 µg/mL (≈ 8.55 µM); as for `CC1Oc2ccccc2N(CC(=O)Nc2ccc(F)cc2)C1=O` (configuration not stated), 12.6 µg/mL (≈ 40.1 µM); as for `Cc1ccc(S(=O)(=O)N2CCN(C(=O)CN3C(=O)NC(C)(c4ccc(Cl)cc4)C3=O)CC2)c(C)c1` (configuration not stated), 3.3 µg/mL (≈ 6.36 µM).
With `COc1c(C)cccc1C(=O)NCCCNC(=O)c1ccc(C)nc1`, the solubility (kinetic) worked out at 46.8 µg/mL (≈ 137 µM).
As for `COc1ccc(CCNC(=O)Oc2ccccc2)cc1OC`, the figure is 42.9 µg/mL (≈ 142 µM); as for `O=S1(=O)CC2NC(=S)N(c3cccc(Br)c3)C2C1` (configuration not stated), above 52.1 µg/mL.
